Source: US6620953B1, “Method for producing monoaryloxy-ansa-metallocenes” (Bassell Polyolefine GmbH, priority 1998, dated 2003)

Key:
[1] = Solubility comparison in toluene at room temperature; format: physicochemical; settings: 50 mg in toluene at room temperature
[2] = Propylene polymerization with supported metallocene/MAO/SiO2 catalyst; settings: metallocene 0.047 mmol in 30% MAO/toluene (Al/Zr=215) on SiO2; liquid propylene, 60° C., one hour
Protocol: (§1) 35.1 mg (0.047 mmol) of (3) were stirred in 2.1 ml of 30% strength MAO solution in toluene (Al/Zr=215) for 60 minutes at room temperature. 2 g of SiO2 (Grace XPO2107, pretreated at 140° C., 10 mbar, 10 hours) were subsequently added and the mixture was stirred for another 10 minutes. The solvent was removed in an oil pump vacuum.
A dry 2 l reactor was flushed firstly with nitrogen and subsequently propylene and charged with 1.5 l of liquid propylene. 2 ml of TEA (20% strength in Varsol) were added and the mixture was stirred for 15 minutes. The catalyst system prepared above (0.886 g) was then resuspended in 20 ml of heptane and injected into reactor and rinsed in using 15 ml of heptane. The reaction mixture was heated to the polymerization temperature of 60° C. and polymerization was carried out for one hour. The polymerization was stopped by venting the remaining propylene. The polymer was dried in a vacuum drying oven. This gave 470 g of polypropylene powder. […] The catalyst activity was 0.53 kg of PP/g of catalyst x h.
as §1, with “27.1” for “35.1”, “dimethylsilanediylbis(2-methyl-4,5-benzoindenyl)zirconium dichloride” for “(3)”, “The solvent was removed in an oil pump vacuum.” left out

Question: Which solubility [1] does the source give for `Cc1cc2ccccc2[c-]1[Si](C)(C)[c-]1c(C)cc2ccccc21.[Cl-].[Cl-].[Zr+4]` (racemic) [Rac-Dimethylsilanediylbis(2-methylindenyl)-zirconium Dichloride] here?
Answer: The solubility was “about 2.1 mmol/l”.

Question: Which results are given for `CC1=Cc2c(ccc3ccccc23)[C]12[Si](C)(C)[C]1(C(C)=Cc3c1ccc1ccccc31)[Zr]2([Cl])[Cl]` (stereo not drawn) [Rac-Dimethylsilanediylbis(2-methyl-4,5-benzoindenyl)zirconium Dichloride]?
Answer: solubility [1]: about 0.36 mmol/l; catalyst activity [2]: 0.46 kg of PP/g of catalyst x h

Question: For `CC1=Cc2c(ccc3ccccc23)[C]12[Si](C)(C)[C]1(C(C)=Cc3c1ccc1ccccc31)[Zr]2([Cl])[O]c1ccc(C(C)(C)C)cc1C(C)(C)C` (stereo not drawn) [compound 3, Pseudo-rac-Dimethylsilanediylbis(2-methyl-4,5-benzo-indenyl)zirconium Monochloride Mono(2,4-di-tert-butylphenoxide)], which solubility [1] is on record?
Answer: The solubility was over 13 mM.

Question: What about the catalyst activity [2] of the same compound?
Answer: The catalyst activity was 0.53 kg of PP/g of catalyst x h.

Question: For `CC1=Cc2ccccc2[C]12[Si](C)(C)[C]1(C(C)=Cc3ccccc31)[Zr]2([Cl])[O]c1ccc(C(C)(C)C)cc1C(C)(C)C` (stereo not drawn) [compound 4, Pseudo-rac-Dimethylsilanediylbis(2-methylindenyl)-zirconium Monochloride Mono(2,4-di-tert-butylphenoxide)], which solubility [1] is on record?
Answer: Its solubility is over 15 mM.
